Entries after “also recorded” stand apart in the source; their conditions may differ.
Key:
[1] = system: PC3 (AR‐negative) PCa cells; assay: 2D proliferation assay (resazurin), PC3; format: cell-based
Protocol: (§1) Cell cultures, proliferation assay and spheroid gro wth […]
streptomycin and 2 m M L-glutamine. All cells were regularly tested for mycoplasma contamination.
For the proliferation assay, cells were counted with a hemocytometer and seeded in triplicates in 96-well plates (4 .5x10^3 cells/well for 22Rv1 and 2.0x103 for PC3) and let adhere overnight at 37°C, […]
(§2) transfected with siRNA for BAZ2A , RLUC or KIF11, as detailed below. The cells were incubated for 1, 3, 6 (PC3) and 9 days (22Rv1) and the medium containing either the carrier or the inhibitors was replaced every 3 day s. Cell proliferation and viability were determined at day 1, 3, 6 and 9 by adding 10% resazurin sodium salt solution (0. 03 mg/ml powder from Sigma -Aldrich) directly into each well and incubating them for 4h at 37°C, 5% CO 2. The absorbance at 570/600 nm was measured using a Varioskan plate reader. The reduction of the resazur in sodium salt was calculated using the formula: (Abs x – Abs 0. 1%DMSO day1)/(Abs 0. 1%DMSO day9 - Abs 0. 1%DMSO day1). The growth rate was analysed using the linear regression algorithm of GraphPad Prism. […]

[2] = system: PC3 spheroids; assay: Spheroid growth (3D), PC3; format: cell-based
Protocol: as §1
streptomycin and 2 m M L-glutamine. All cells were regularly tested for mycoplasma contamination. […]
Spheroids were obtained by plating PC3 and 22Rv1 cells in low -adhesion round bottom 96 -well […]
(§3) After seeding, the cells were centrifuged for 10 min at 1200 x g at 4°C. Spheroids were given 48 hours to form after seeding before adding the treatment or the carrier (0.1% DMSO). Medium supplemented with treatment/carrier was changed every 48 hours, for a total of 32 days for 22Rv1 and 16 days for PC3. Each spheroid was imaged in brightfield every day or every other day (after day 20), using a Leica DM IL microscope […]
(§4) equipped with a Leica DFC450C digital camera. The area of each spheroid was measured using ImageJ and the average area for each condition was calculated. The growth rate was analysed using the segmental linear regression algorithm of GraphPad Prism. The appropriateness of the model was evaluated by considering the R square values and the Replicates test (Suppl. Table 6). […]

[3] = system: 22Rv1 (AR‐positive) PCa cells; assay: 2D proliferation assay (resazurin), 22Rv1; format: cell-based
Protocol: (§5) Cell cultures, proliferation assay and spheroid gro wth
PC3 and 22Rv1 cells were cultured in RPMI 1640 medium containing 10% FBS, 1% penicillin-streptomycin and 2 m M L-glutamine. All cells were regularly tested for mycoplasma contamination.
For the proliferation assay, cells were counted with a hemocytometer and seeded in triplicates in 96-well plates (4 .5x10^3 cells/well for 22Rv1 and 2.0x103 for PC3) and let adhere overnight at 37°C, 5% CO2. The following day, the medium was replaced with RPMI 1640 containing either the carrier […]
as §2

[4] = system: 22Rv1 spheroids; assay: Spheroid growth (3D), 22Rv1; format: cell-based
Protocol: as §5
PC3 and 22Rv1 cells were cultured in RPMI 1640 medium containing 10% FBS, 1% penicillin-streptomycin and 2 m M L-glutamine. All cells were regularly tested for mycoplasma contamination. […]
as §3, with “Spheroids were obtained by plating PC3 and 22Rv1 cells in low -adhesion round bottom 96 -well plates. For 22Rv1, 2500 cells/well were seeded in 200 µl RPMI 1640; for PC3, 250 cells/well were seeded in 200 µl RPMI 1640 supplemented with 1.5% Matrigel. After” for “After”
as §4

[5] = target: GCN5; set-up: method as in Humphreys et al., [2017]; settings: ref Humphreys et al., [2017]; read-out: K D GCN5 bromodomain; cited from earlier work
[6] = target: T1, BAZ2A bromodomain (Homo sapiens, UniProt Q9UIF9); assay: Isothermal titration calorimetry (ITC) on BAZ2A; format: binding
T1 construct: BAZ2A and BAZ2B bromodomains were produced; made in house
T1 sequence (Q9UIF9 1793-1897 limits assumed): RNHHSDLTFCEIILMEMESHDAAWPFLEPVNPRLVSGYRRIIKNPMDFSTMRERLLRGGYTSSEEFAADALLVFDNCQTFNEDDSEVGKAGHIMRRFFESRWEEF
Description: It is worth noticing however that these values may be slightly overestimated. The presence of 0.25% DMSO in the ITC experiments leads to less favorable K D values as DMSO competes for binding to the conserved Asn (Lolli & Battistutta, [2013]; Navratilova et al., [2016]). […] Indeed, the change in sign of the entropic term observed for TP‐238 binding to BAZ2A (compared to BPTF and CECR2) closely resembles the effect reported for crotonyllysine binding to the TAF1 bromodomain (compared to Kac), also displacing an additional water molecule from the binding pocket (Flynn et al., [2015]). […]
Isothermal Titration Calorimetry
ITC experiments were performed using an MicroCal PEAQ-IT C microcalorimeter (Malvern Panalytical, UK) at 25°C with a stirring speed of 750 rpm in 20mM Tris pH 7. 8, 0. 2 M NaCl, 0. 2 mM TCEP and 0. 25% DMSO. For each experiment, one 0. 4 µl injection followed by eighteen 2 µl injections have been performed, with 150 seconds separating each injectio n. The inhibitors were tested at 70 µM in the cell with His -Baz2A in the syringe at 1 mM. A blank run with only the buffer was carried out (Suppl. Fig. S6). Data analysis was done with PE A Q-ITC Analysis software , fitting the curve with the ‘one site’ model.

[7] = target: T2, BAZ2B bromodomain (Homo sapiens, UniProt Q9UIF8); assay: AlphaScreen binding competition, BAZ2B bromodomain; settings: compound at 100 μM
T2 construct: BAZ2A and BAZ2B bromodomains were produced; made in house
T2 sequence (Q9UIF8 2060-2164 limits assumed): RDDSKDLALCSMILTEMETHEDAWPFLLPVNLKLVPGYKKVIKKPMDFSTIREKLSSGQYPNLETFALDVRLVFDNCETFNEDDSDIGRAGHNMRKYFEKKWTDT
Description: (§6) BAZ2A and BAZ2B bromodomains were produced and their activity evaluated by AlphaScreen as previously reported (Dalle Vedove et al., [2018]; Spiliotopoulos et al., [2017]). BAZ2A bromodomain was crystallized as detailed in an earlier work (Spiliotopoulos et al., [2017]). Diffraction data were collected at the Elettra Synchrotron Light Source (Trieste, Italy), XRD1 and XRD2 beamlines, and the European Synchrotron Radiation Facility (ESRF, Grenoble, France), ID30A‐1/MASSIF‐1 beamline. Data were processed and structures were solved as described elsewhere (Dalle Vedove et al., [2018]). Chemical synthesis of compounds UP39 and UZH23 has already been reported (Unzue et al., [2016]; Zhu et al., [2018]). A detailed description of cell culture methods and ITC protocol is provided in the Supporting Information.
(§7) Figure S3. AlphaScreen competition binding assay for compounds UP39 and UZH23. The specific binding to the acetylated peptide relative to the control DMSO (y-axis) is plotted against the corresponding compound concentration in µM in log10 scale (x-axis).
(§8) (1 picture or pasted object on this page, not shown here)

[8] = target: BRPF1; set-up: method as in Humphreys et al., [2017]; settings: lower potency than on PCAF/GCN5; ref Humphreys et al., [2017]; read-out: potency on BRPF1 bromodomain; cited from earlier work
[9] = target: PCAF; set-up: method as in Humphreys et al., [2017]; settings: ref Humphreys et al., [2017]; read-out: K D PCAF bromodomain; cited from earlier work
[10] = target: T1, BAZ2A bromodomain; assay: Screening by co‐crystallization with BAZ2A bromodomain; format: binding
Description: as §6

[11] = target: T1, BAZ2A bromodomain; assay: AlphaScreen binding competition, BAZ2A bromodomain; settings: compound at 100 μM
Description: as §6, §7, §8

[12] = target: BRD1; set-up: method as in Humphreys et al., [2017]; settings: lower potency than on PCAF/GCN5; ref Humphreys et al., [2017]; read-out: potency on BRD1 bromodomain; cited from earlier work
[13] = target: BRPF3; set-up: method as in Humphreys et al., [2017]; settings: lower potency than on PCAF/GCN5; ref Humphreys et al., [2017]; read-out: potency on BRPF3 bromodomain; cited from earlier work
[14] = system: first bromodomain of BRD4; set-up: method as in Hay et al., [2014]; Picaud et al., [2015]; settings: ref Hay et al., [2014]; Picaud et al., [2015]; cited from earlier work
[15] = 3D setting, GSK2801 25 μM, BAZ2‐ICR 25 μM, BI9564 20 μM

Q: Which “effect on 2D growth of PC3 cells” value ([1]; 2D‐cell culture, PC3) does the source give for `COc1cc(-c2cn(C)c(=O)c3cnccc23)c(OC)cc1CN(C)C` [BI9564] here?
A: Its value is “completely inactive on PC3 cells”.

Q: What about the “Slope (best-fit, linear regression of growth curve)” value ([1]; PC3, 0.1 µM) of the same compound?
A: Its value is 0,1514.

Q: What about the “Slope (best-fit, linear regression of growth curve)” value ([1]; PC3, 0.25 µM) of the same compound?
A: Its value is 0,1530.

Q: And the “Slope (best-fit, linear regression of growth curve)” value ([1]; PC3, 0.5 µM)?
A: The value was 0,1594.

Q: What about the “Slope (best-fit, linear regression of growth curve)” value ([1]; PC3, 1 µM) of the same compound?
A: Its value is 0,1557.

Q: And the “Slope (best-fit, linear regression of growth curve)” value ([1]; PC3, 2.5 µM)?
A: The value was 0,1485.

Q: And the “Slope (best-fit, linear regression of growth curve)” value ([1]; PC3, 5 µM)?
A: The value was 0,1453.

Q: And the “Slope (best-fit, linear regression of growth curve)” value ([1]; PC3, 10 µM)?
A: The value was 0,1454.

Q: And the “Slope (best-fit, linear regression of growth curve)” value ([1]; PC3, 20 µM)?
A: The value was 0,1470.

Q: What about the “effect on growth of PC3 spheroids” value [2, 15] of the same compound?
A: Its value is “less effective on PC3”.

Q: And the “slope2 (segmental linear regression of spheroid growth)” value ([2]; PC3 spheroids, 20 µM, after X0 = day 6)?
A: Its value is 69835.

Q: What about the “slope1 (segmental linear regression of spheroid growth)” value ([2]; PC3 spheroids, 20 µM, before X0 = day 6) of the same compound?
A: The value was 28821.

Q: What about the “effect on 2D growth of 22Rv1 cells” value ([3]; 2D‐cell culture, 22Rv1) of the same compound?
A: The value was “only moderately affected 22Rv1 cell growth; also recorded: limited activity only on 22Rv1 cells”.

Q: What about the “Slope (best-fit, linear regression of growth curve)” value ([3]; 22Rv1, 0.1 µM) of the same compound?
A: Its value is 0,1043.

Q: What about the “Slope (best-fit, linear regression of growth curve)” value ([3]; 22Rv1, 0.25 µM) of the same compound?
A: The value was 0,1062.

Q: And the “Slope (best-fit, linear regression of growth curve)” value ([3]; 22Rv1, 0.5 µM)?
A: Its value is 0,1057.

Q: And the “Slope (best-fit, linear regression of growth curve)” value ([3]; 22Rv1, 1 µM)?
A: Its value is 0,1046.

Q: What about the “Slope (best-fit, linear regression of growth curve)” value ([3]; 22Rv1, 2.5 µM) of the same compound?
A: The value was 0,09943.

Q: And the “Slope (best-fit, linear regression of growth curve)” value ([3]; 22Rv1, 5 µM)?
A: The value was 0,09452.

Q: And the “Slope (best-fit, linear regression of growth curve)” value ([3]; 22Rv1, 10 µM)?
A: Its value is 0,08987.

Q: What about the “Slope (best-fit, linear regression of growth curve)” value ([3]; 22Rv1, 20 µM) of the same compound?
A: The value was 0,08043.

Q: What about the “effect on growth of 22Rv1 spheroids” value [4, 15] of the same compound?
A: The value was “reduced the growth of 22Rv1 spheroids”.

Q: What about the “slope2 (segmental linear regression of spheroid growth)” value ([4]; 22Rv1 spheroids, 20 µM, after X0 = day 9) of the same compound?
A: Its value is 6998.

Q: And the “slope1 (segmental linear regression of spheroid growth)” value ([4]; 22Rv1 spheroids, 20 µM, before X0 = day 9)?
A: The value was 12255.

Q: For `CN1C[C@H](Nc2cnn(C)c(=O)c2Br)C[C@H](c2ccccc2)C1` [GSK4027], which Kd [5] is on record?
A: Its Kd is 1.4 nM.

Q: And the Kd ([6]; 25°C, 0.25% DMSO, read-out: K D BAZ2A)?
A: The Kd was 165000 ± 8000 nM.

Q: What about the TΔS ([6]; BAZ2A) of the same compound?
A: The TΔS was -5.8 kcal/mol.

Q: And the ΔG ([6]; BAZ2A)?
A: The ΔG was -5.2 kcal/mol.

Q: And the ΔH ([6]; BAZ2A)?
A: Its ΔH is -11.0 ± 0.3 kcal/mol.

Q: And the “N (sites)” value ([6]; BAZ2A, one site model)?
A: The value was 1 sites.

Q: And the “% residual binding BAZ2B (100 μM)” value [7]?
A: Its value is 70 ± 3%.

Q: What about the Kd [8] of the same compound?
A: The Kd was 100 to 150 nM.

Q: What about the Kd [9] of the same compound?
A: Its Kd is 1.4 nM.

Q: And the “located in BAZ2A Kac pocket by co‐crystallization” value [10]?
A: The value was “located in the BAZ2A Kac pocket”.

Q: And the “% residual binding BAZ2A (100 μM)” value [11]?
A: Its value is 77 ± 5%.

Q: And the Kd [12]?
A: The Kd was 100 to 150 nM.

Q: What about the Kd [13] of the same compound?
A: The Kd was 100 to 150 nM.

Q: Which results are given for `CCC(=O)N1CCOc2c(cc(-c3ccc(OC)c(OC)c3)cc2OC[C@H]2CCCN(C)C2)C1` [I‐CBP112]?
A: % residual binding BAZ2B (100 μM) [7]: 96 ± 1%; off‐target activity on the first bromodomain of BRD4 [14]: weak off‐target activity; located in BAZ2A Kac pocket by co‐crystallization [10]: inability to act as BAZ2A inhibitors; % residual binding BAZ2A (100 μM) [11]: 98 ± 2%
